SMILES strings stand for the structures.

The first experiment deals with Ramos cells. Description: Cytotoxicity in Ramos cells. It counts as cell-based. The following applies: Homo sapiens, read-out: Ramos Cell EC50. As to the method:
Exemplary compounds described in above Examples were tested for activity against F1F0-ATPase by measuring the ability of the compounds to inhibit ATP synthesis. In addition, the compounds were assessed for cytotoxicity in Ramos cells. Inhibition of F1F0-ATPase activity in synthesizing ATP and cytotoxicity in Ramos cells were measured according to the procedures described in K. M. Johnson et al. Chemistry & Biology 2005, 12, 485-496.
As usually defined, the EC50 is the concentration needed to bring the measured effect to its halfway point. As to `O=C(/N=C(/Nc1cc(F)cc(Cl)c1)Nc1cc(C(F)(F)F)nn1CC(O)CO)c1cccc(Cl)c1` (single isomer, unassigned) [Compound A-10], the EC50 is less than 10 µM.
Same read-out and setting: then `O=C(/N=C(/Nc1cc(F)cc(Cl)c1)Nc1cc(C(F)(F)F)nn1CCO)c1ccc(C(F)(F)F)cc1` [Compound A-1], with less than 10 µM; and `N#CCCn1nc(C(F)(F)F)cc1N/C(=N\C(=O)c1ccc(C(F)(F)F)cc1)Nc1cc(F)cc(Cl)c1` [Compound A-2], with less than 10 µM; and `CC(O)Cn1nc(C(F)(F)F)cc1N/C(=N\C(=O)c1ccc(C(F)(F)F)cc1)Nc1cc(F)cc(Cl)c1` (stereo not shown) [Compound A-3], with less than 10 µM.
Same read-out and setting: the result for `CCOC(=O)Cn1nc(C(F)(F)F)cc1N/C(=N\C(=O)c1ccc(C(F)(F)F)cc1)Nc1cc(F)cc(Cl)c1` [Compound A-4] reads less than 10 µM; that for `O=C(O)Cn1nc(C(F)(F)F)cc1N/C(=N\C(=O)c1ccc(C(F)(F)F)cc1)Nc1cc(F)cc(Cl)c1` [Compound A-5], less than 10 µM.
Turning to `NC(=O)Cn1nc(C(F)(F)F)cc1N/C(=N\C(=O)c1ccc(C(F)(F)F)cc1)Nc1cc(F)cc(Cl)c1` [Compound A-6], the EC50 is less than 10 µM.
On the same count and under the same terms, then `Cc1c(C(F)(F)F)nn(CCO)c1N/C(=N\C(=O)c1ccc(C(F)(F)F)cc1)Nc1cc(F)cc(Cl)c1` [Compound A-7], with less than 10 µM.
The same measure, in the same setting: the result for `COc1ccc(C(=O)/N=C(/Nc2cccc(Cl)c2)Nc2cc(C(F)(F)F)nn2CCO)cc1` [Compound A-8] reads less than 10 µM; that for `COc1ccc(C(=O)/N=C(/Nc2cccc(C(F)(F)F)c2)Nc2cc(C(F)(F)F)nn2CCO)cc1` [Compound A-9], less than 10 µM; that for `C=CCn1nc(C(F)(F)F)cc1N/C(=N\C(=O)c1cccc(Cl)c1)Nc1cc(F)cc(Cl)c1` [Compound A-12], less than 10 µM.
As to `O=C(/N=C(/Nc1cc(F)cc(Cl)c1)Nc1cc(C(F)(F)F)nn1-c1ccccc1)c1ccc(Cl)cc1` [Compound A-13], the EC50 was less than 10 µM.
Still for that read-out and setting: then `O=C(/N=C(/Nc1cccc(Cl)c1)Nc1cc(C(F)(F)F)nn1-c1ccccc1)c1ccc(Cl)cc1` [Compound A-14], with less than 10 µM; and `O=C(/N=C(/Nc1cccc(C(F)(F)F)c1)Nc1cc(C(F)(F)F)nn1-c1ccccc1)c1ccc(Cl)cc1` [Compound A-15], with less than 10 µM; and `O=C(/N=C(/Nc1cc(F)cc(Cl)c1)Nc1cc(C(F)(F)F)nn1-c1ccc(F)cc1)c1ccc(Cl)cc1` [Compound A-16], with less than 10 µM.
As for `O=C(/N=C(/Nc1cccc(Cl)c1)Nc1cc(C(F)(F)F)nn1-c1ccc(F)cc1)c1ccc(Cl)cc1` [Compound A-17], the EC50 was less than 10 µM.
The same measure, in the same setting: the result for `O=C(/N=C(/Nc1cccc(C(F)(F)F)c1)Nc1cc(C(F)(F)F)nn1-c1ccc(F)cc1)c1ccc(Cl)cc1` [Compound A-18] reads less than 10 µM; that for `O=C(/N=C(/Nc1cc(F)cc(Cl)c1)Nc1cc(C(F)(F)F)nn1-c1ccc(F)cc1)c1cccc(Cl)c1` [Compound A-19], less than 10 µM; that for `O=C(/N=C(/Nc1cc(F)cc(Cl)c1)Nc1cc(C(F)(F)F)nn1-c1cccc(Cl)c1)c1cccc(Cl)c1` [Compound A-20], less than 10 µM.
Still for that read-out and setting: then `O=C(/N=C(/Nc1cc(F)cc(Cl)c1)Nc1cc(C(F)(F)F)nn1-c1cccc(Cl)c1)c1ccc(C(F)(F)F)cc1` [Compound A-21], with less than 10 µM.
Still for that read-out and setting: the result for `O=C(/N=C(/Nc1cccc(Cl)c1F)Nc1cc(C(F)(F)F)nn1-c1cccc(Cl)c1)c1ccc(F)c(F)c1` [Compound A-22] reads less than 10 µM.
Take `Cc1c(C(F)(F)F)nn(-c2ccc(F)cc2)c1N/C(=N\C(=O)c1cccc(Cl)c1)Nc1cc(F)cc(Cl)c1` [Compound A-23]: the EC50 was less than 10 µM.
As to `Cc1c(C(F)(F)F)nn(-c2ccc(F)cc2)c1N/C(=N\C(=O)c1ccc(C(F)(F)F)cc1)Nc1cc(F)cc(Cl)c1` [Compound A-24], the EC50 is less than 10 µM.
On the same count and under the same terms, the result for `Cc1c(C(F)(F)F)nn(-c2ccc(F)cc2)c1N/C(=N\C(=O)c1ccc(F)c(F)c1)Nc1cccc(Cl)c1F` [Compound A-25] reads less than 10 µM; that for `O=C(/N=C(/Nc1cc(F)cc(Cl)c1)Nc1cc(C(F)(F)F)nn1C1CCCC1)c1cccc(Cl)c1` [Compound A-26], less than 10 µM; that for `O=C(/N=C(/Nc1cc(F)cc(Cl)c1)Nc1cc(C(F)(F)F)nn1C1CCCCC1)c1cccc(Cl)c1` [Compound A-27], less than 10 µM.
On the same count and under the same terms, then `O=C(/N=C(/Nc1cc(F)cc(Cl)c1)Nc1cc(C(F)(F)F)nn1C1CCCCC1)c1ccc(F)c(F)c1` [Compound A-28], with less than 10 µM; and `O=C(/N=C(/Nc1cc(F)cc(Cl)c1)Nc1ccnn1-c1ccccc1)c1cccc(Cl)c1` [Compound A-29], with less than 10 µM.
Take `O=C(/N=C(/Nc1cc(F)cc(Cl)c1)Nc1ccnn1-c1ccccc1)c1ccc(F)c(F)c1` [Compound A-30]: the EC50 is less than 10 µM.
Take `COc1cc(OC)cc(-n2nc(C(F)(F)F)cc2N/C(=N\C(=O)c2ccc(F)c(F)c2)Nc2cc(F)cc(Cl)c2)c1` [Compound A-31]: the EC50 is less than 10 µM.
The same measure, in the same setting: then `O=C(/N=C(/Nc1cc(F)cc(Cl)c1)Nc1cc(C(F)(F)F)nn1-c1cccnc1)c1cccc(Cl)c1` [Compound A-32], with less than 10 µM; and `O=C(/N=C(/Nc1cc(F)cc(Cl)c1)Nc1cc(C(F)(F)F)nn1C1CCCC1)c1ccc(F)c(F)c1` [Compound A-33], with less than 10 µM.
`COc1cc(O)cc(-n2nc(C(F)(F)F)cc2N/C(=N\C(=O)c2ccc(F)c(F)c2)Nc2cc(F)cc(Cl)c2)c1` [Compound A-34]: the EC50 is less than 10 µM.
In the case of `O=C(/N=C(/Nc1cc(F)cc(Cl)c1)Nc1cc(C(F)(F)F)nn1-c1cc(O)cc(O)c1)c1ccc(F)c(F)c1` [Compound A-35], the EC50 was less than 10 µM.
Take `O=C(/N=C(/Nc1cc(F)cc(Cl)c1)Nc1cc(C(F)(F)F)nn1C1CCOCC1)c1cccc(Cl)c1` [Compound A-36]: the EC50 was less than 10 µM.
`CS(=O)(=O)N1CCC(n2nc(C(F)(F)F)cc2N/C(=N\C(=O)c2cccc(Cl)c2)Nc2cc(F)cc(Cl)c2)CC1` [Compound A-37]: the EC50 was less than 10 µM.
On the same count and under the same terms, the result for `COC(=O)N1CCC(n2nc(C(F)(F)F)cc2N/C(=N\C(=O)c2cccc(Cl)c2)Nc2cc(F)cc(Cl)c2)CC1` [Compound A-38] reads less than 10 µM.
With `O=C(/N=C(/Nc1cc(F)cc(Cl)c1)Nc1cc(C(F)(F)F)nn1C1CCCC1)c1cc(F)c(Cl)cc1Cl` [Compound A-39], the EC50 is less than 10 µM.
Still for that read-out and setting: the result for `O=C(/N=C(/Nc1cc(F)cc(Cl)c1)Nc1cc(C(F)(F)F)nn1C1CCCC1)c1cc(F)c(Cl)cc1F` [Compound A-40] reads less than 10 µM; that for `Cc1cc(Cl)ccc1C(=O)/N=C(/Nc1cc(F)cc(Cl)c1)Nc1cc(C(F)(F)F)nn1C1CCCC1` [Compound A-41], less than 10 µM.
Same read-out and setting: then `O=C(/N=C(/Nc1cc(F)cc(Cl)c1)Nc1cc(C(F)(F)F)nn1C1CCCC1)c1ccc(Cl)cc1F` [Compound A-42], with less than 10 µM; and `Cc1c(Cl)cccc1C(=O)/N=C(/Nc1cc(F)cc(Cl)c1)Nc1cc(C(F)(F)F)nn1C1CCCC1` [Compound A-43], with less than 10 µM; and `O=C(/N=C(/Nc1cc(F)cc(Cl)c1)Nc1cc(C(F)(F)F)nn1C1CCCC1)c1cccc(Cl)c1F` [Compound A-44], with less than 10 µM.
Still for that read-out and setting: then `O=C(/N=C(/Nc1cc(F)cc(Cl)c1)Nc1cc(C(F)(F)F)nn1C1CCCC1)c1ccc(Cl)c(F)c1` [Compound A-45], with less than 10 µM; and `O=C(/N=C(/Nc1cc(F)cc(Cl)c1)Nc1cc(C(F)(F)F)nn1C1CCCC1)c1ccc(Cl)cc1Cl` [Compound A-46], with less than 10 µM; and `Cc1cc(F)ccc1C(=O)/N=C(/Nc1cc(F)cc(Cl)c1)Nc1cc(C(F)(F)F)nn1C1CCCC1` [Compound A-47], with less than 10 µM.
As to `O=C(/N=C(/Nc1cc(F)cc(Cl)c1)Nc1cc(C(F)(F)F)nn1C1CCCC1)c1c(F)cccc1F` [Compound A-48], the EC50 is less than 10 µM.
Take `COc1cccc(C(=O)/N=C(/Nc2cc(F)cc(Cl)c2)Nc2cc(C(F)(F)F)nn2C2CCCC2)c1` [Compound A-49]: the EC50 is less than 10 µM.
Regarding `O=C(/N=C(/Nc1cc(F)cc(Cl)c1)Nc1cc(C(F)(F)F)nn1C1CCCC1)c1cccc(F)c1` [Compound A-50], the EC50 is less than 10 µM.
On the same count and under the same terms, the result for `N#Cc1ccc(C(=O)/N=C(/Nc2cc(F)cc(Cl)c2)Nc2cc(C(F)(F)F)nn2C2CCCC2)cc1` [Compound A-51] reads less than 10 µM; that for `N#Cc1ccc(C(=O)/N=C(/Nc2cccc(Cl)c2)Nc2cc(C(F)(F)F)nn2C2CCCC2)cc1` [Compound A-52], less than 10 µM; that for `O=C(/N=C(/Nc1cccc(Cl)c1)Nc1cc(C(F)(F)F)nn1C1CCCC1)c1ccc(Cl)cc1` [Compound A-53], less than 10 µM.
Consider `N#Cc1cccc(C(=O)/N=C(/Nc2cc(F)cc(Cl)c2)Nc2cc(C(F)(F)F)nn2C2CCCC2)c1` [Compound A-54], for which the EC50 was less than 10 µM.
`N#Cc1cccc(C(=O)/N=C(/Nc2cccc(Cl)c2)Nc2cc(C(F)(F)F)nn2C2CCCC2)c1` [Compound A-55]: the EC50 was less than 10 µM.
The same measure, in the same setting: then `O=C(/N=C(/Nc1cc(F)cc(Cl)c1)Nc1cc(C(F)(F)F)nn1C1CCCC1)c1ccccc1Cl` [Compound A-56], with less than 10 µM; and `O=C(/N=C(/Nc1cccc(Cl)c1)Nc1cc(C(F)(F)F)nn1C1CCCC1)c1ccccc1Cl` [Compound A-57], with less than 10 µM; and `O=C(N=C(Nc1cc(F)cc(Cl)c1)Nc1cc(C(F)(F)F)nn1C1CCCC1)c1ccc(Cl)cc1` [Compound A-58, 4-chloro-N-(((3-chloro-5-fluorophenyl)amino)((1-cyclopentyl-3-(trifluoromethyl)-1H-pyrazol-5-yl)amino)methylene)benzamide], with less than 10 µM.

The same experiment, now with this note: read-out: Ramos Cell EC50.
As for `O=C(/N=C(/Nc1cc(F)cc(Cl)c1)Nc1cc(C(F)(F)F)nn1CC(O)CO)c1cccc(Cl)c1` (single isomer, unassigned) [Compound A-11], the EC50 was less than 10 µM.
